In ChEMBL document CHEMBL1130004, “Bioactivities and secondary structures of constrained analogues of human parathyroid hormone: cyclic lactams of the receptor binding region” (J Med Chem, 1997) one finds EC50 data, which are given here for six compounds.

Positions of bridges follow the written chain, without caps; N, C: chain ends. Residues, ends and D or L forms follow the SMILES beside them.

The species entered for the test is Rattus norvegicus. The test is described as follows: Adenylyl cyclase stimulating activity expressed as effective dose was measured in rat osteosarcoma 17/2 cells. The format is functional, cell-based.
By EC50 is commonly meant the midpoint of the concentration-response curve. A high value points to a less potent agent. Turning to `CC[C@H](C)[C@H](NC(=O)[C@H](CCC(=O)O)NC(=O)[C@H](CO)NC(=O)[C@@H](NC(=O)[C@@H](N)CO)C(C)C)C(=O)N[C@@H](CCC(N)=O)C(=O)N[C@@H](CC(C)C)C(=O)N[C@@H](CCSC)C(=O)N[C@@H](Cc1c[nH]cn1)C(=O)N[C@@H](CC(N)=O)C(=O)N[C@@H](CC(C)C)C(=O)NCC(=O)N[C@@H](CCCCN)C(=O)N[C@@H](Cc1c[nH]cn1)C(=O)N[C@@H](CC(C)C)C(=O)N[C@@H](CC(N)=O)C(=O)N[C@@H](CO)C(=O)N[C@@H](CCSC)C(=O)N[C@@H](CCC(=O)O)C(=O)N[C@@H](CCCN=C(N)N)C(=O)N[C@H](C(=O)N[C@H]1CCC(=O)NCCCC[C@@H](C(=O)N[C@@H](CC(C)C)C(=O)N[C@@H](CC(C)C)C(=O)N[C@@H](CCC(N)=O)C(=O)N[C@@H](CC(=O)O)C(=O)N[C@H](C(N)=O)C(C)C)NC(=O)[C@H](CCCN=C(N)N)NC(=O)[C@H](CC(C)C)NC(=O)[C@H](Cc2c[nH]c3ccccc23)NC1=O)C(C)C` (H-SVSEIQLMHNLGKHLNSMERVEWLRKLLQDV-NH2; lactam 22-26), the EC50 is 3.3 nM.
Next, `CC[C@H](C)[C@H](NC(=O)[C@H](CCC(=O)O)NC(=O)[C@H](CO)NC(=O)[C@@H](NC(=O)[C@@H](N)CO)C(C)C)C(=O)N[C@@H](CCC(N)=O)C(=O)N[C@@H](CC(C)C)C(=O)N[C@@H](CCSC)C(=O)N[C@@H](Cc1c[nH]cn1)C(=O)N[C@@H](CC(N)=O)C(=O)N[C@@H](CC(C)C)C(=O)NCC(=O)N[C@@H](CCCCN)C(=O)N[C@@H](Cc1c[nH]cn1)C(=O)N[C@@H](CC(C)C)C(=O)N[C@@H](CC(N)=O)C(=O)N[C@@H](CO)C(=O)N[C@@H](CCSC)C(=O)N[C@@H](CCC(=O)O)C(=O)N[C@@H](CCCN=C(N)N)C(=O)N[C@H](C(=O)N[C@H]1CCC(=O)NCCCC[C@@H](C(=O)N[C@@H](CC(C)C)C(=O)N[C@@H](CC(C)C)C(=O)N[C@@H](CCC(N)=O)C(=O)N[C@@H](CC(=O)O)C(N)=O)NC(=O)[C@H](CCCN=C(N)N)NC(=O)[C@H](CC(C)C)NC(=O)[C@H](Cc2c[nH]c3ccccc23)NC1=O)C(C)C` (H-SVSEIQLMHNLGKHLNSMERVEWLRKLLQD-NH2; lactam 22-26): 20 nM; H-SVSEIQLMHNLGKHLNSMERVEWLRKKLQD-NH2: 20 nM; H-SVSEIQLMHNLGKHLNSMERVEWLRKLLQD-NH2: 20 nM.
As for `CC[C@H](C)[C@H](NC(=O)[C@H](CCC(=O)O)NC(=O)[C@H](CO)NC(=O)[C@@H](NC(=O)[C@@H](N)CO)C(C)C)C(=O)N[C@@H](CCC(N)=O)C(=O)N[C@@H](CC(C)C)C(=O)N[C@@H](CCSC)C(=O)N[C@@H](Cc1c[nH]cn1)C(=O)N[C@@H](CC(N)=O)C(=O)N[C@@H](CC(C)C)C(=O)NCC(=O)N[C@@H](CCCCN)C(=O)N[C@@H](Cc1c[nH]cn1)C(=O)N[C@@H](CC(C)C)C(=O)N[C@@H](CC(N)=O)C(=O)N[C@@H](CO)C(=O)N[C@@H](CCSC)C(=O)N[C@@H](CCC(=O)O)C(=O)N[C@@H](CCCN=C(N)N)C(=O)N[C@H](C(=O)N[C@@H](CCC(=O)O)C(=O)N[C@@H](Cc1c[nH]c2ccccc12)C(=O)N[C@@H](CC(C)C)C(=O)N[C@@H](CCCN=C(N)N)C(=O)N[C@@H](CCCCN)C(=O)N[C@@H](CC(C)C)C(=O)N[C@@H](CC(C)C)C(=O)N[C@@H](CCC(N)=O)C(=O)N[C@@H](CC(=O)O)C(=O)N[C@H](C(N)=O)C(C)C)C(C)C`, it took 11.5 nM to reach a half-maximal effect (EC50).
In turn, `CC[C@H](C)[C@H](NC(=O)[C@H](CCC(=O)O)NC(=O)[C@H](CO)NC(=O)[C@@H](NC(=O)[C@@H](N)CO)C(C)C)C(=O)N[C@@H](CCC(N)=O)C(=O)N[C@@H](CC(C)C)C(=O)N[C@@H](CCSC)C(=O)N[C@@H](Cc1c[nH]cn1)C(=O)N[C@@H](CC(N)=O)C(=O)N[C@@H](CC(C)C)C(=O)NCC(=O)N[C@@H](CCCCN)C(=O)N[C@@H](Cc1c[nH]cn1)C(=O)N[C@@H](CC(C)C)C(=O)N[C@@H](CC(N)=O)C(=O)N[C@@H](CO)C(=O)N[C@@H](CCSC)C(=O)N[C@@H](CCC(=O)O)C(=O)N[C@@H](CCCN=C(N)N)C(=O)N[C@H](C(=O)N[C@@H](CCC(=O)O)C(=O)N[C@@H](Cc1c[nH]c2ccccc12)C(=O)N[C@@H](CC(C)C)C(=O)N[C@@H](CCCN=C(N)N)C(=O)N[C@@H](CCCCN)C(=O)N[C@H]1CCCCNC(=O)C[C@@H](C(=O)N[C@H](C(N)=O)C(C)C)NC(=O)[C@H](CCC(N)=O)NC(=O)[C@H](CC(C)C)NC1=O)C(C)C` displayed an EC50 of 40.3 nM.
